Consider seven molecules from patent publication US9150845B2, “Lyase enzymes, nucleic acids encoding them and methods for making and using them” (BASF ENZYMES LLC, priority 2005, dated 2015).

For one assay, the system named is DH5α host. Kind of assay: Ammonia selection (growth with amino acid substrate, host + vector). The following applies: substrate tested. The assay is classed as cell-based. From the text: (§1) An exemplary activity-based discovery protocol comprises use of an ammonia selection using α-methylPhe to screen environmental libraries. […] A phenylalanine selection screen was also implemented to screen libraries, e.g., environmental libraries—which yielded, inter alia, chorismate mutases (CM), which complement a PheA mutation in the auxotroph screening host. An adamantyl phosphonate, an inhibitor of CM activity, also was used to determine whether can minimize background CM activity in this selection/screening protocol.

In the next assay the test system is chorismate mutases (CM). Kind of assay: Phenylalanine selection screen: suppression of background chorismate mutase activity. The assay is classed as cell-based. The following applies: PheA auxotroph screening host.
Text: as §1

Assay [1] in a line: Activity assignment of exemplary polypeptides (Table 1, assays of Examples 1, 2 and 3). The assay is classed as biochemical. The note with it: Table 1 (FIG. 8). An excerpt:
Table 1, presented as FIG. 8, details an exemplary activity determined for each exemplary polypeptide of the invention (and, also notes one exemplary nucleic acid of the invention that encodes the exemplary polypeptide; as determined by the assays described in Examples 1, 2 and 3, below. Table 1 also sets forth the source organism from which the polynucleotide was isolated (where “unknown” means that the source was an environmental sample), the GenBank accession number of the top BLAST hit, the organism from which the top BLAST hit was isolated, the percent sequence identity between the polypeptide of the invention and the top BLAST hit, the activity assigned to the top BLAST hit, and notes for that particular polynucleotide/polypeptide entry. […]
HAL enzyme activity can be determined as described in Baedeker & Schulz (Eur. J. Biochem 2002, 269, 1790-1797), wherein enzyme activity was determined as the rate of urocanate formation, measured spectrophotometrically at 277 nm. […] The reaction was started by adding 200 μL of 0.5 M histidine solution and then monitored for approximately 5 minutes.
In one aspect, PAL enzyme activity can be determined as described in Rother & Retey (Eur. J. Biochem, 2002, 269, 3065-3075), by following the formation of E-cinnamate spectrophotometrically at 30° C. at 290 nm. […] Kinetic constants were determined using a double reciprocal plot. […]

As to `N[C@@H](Cc1ccccc1Br)C(=O)O` [2-BromoPhe, 2-Bromo-L-phenylalanine], in the assay with DH5α host, the “background growth with negative control (host+empty vector)” value (“background growth with negative control” for short) is “background growth”.

Turning to `N[C@@H](Cc1ccccc1Cl)C(=O)O` [2-ChloroPhe, 2-Chloro-L-phenylalanine], in the assay on DH5α host, the “background growth with negative control” value is “background growth”.

In the case of `N[C@@H](Cc1ccccc1)C(=O)O` [Phe, phenylalanine], in the assay with DH5α host, the “background growth with negative control” value is reported as “background growth”.

Turning to `C[C@](N)(Cc1ccccc1)C(=O)O` [α-methylPhe, α-methylphenylalanine], the “background growth with negative control” value in the assay with DH5α host is on record as “no background growth”.

Consider adamantyl phosphonate, for which, in the assay on chorismate mutases (CM), the “inhibition of background CM activity in selection/screening protocol” value is listed as “lack of potency”.

B1: SEQ ID NO:236: polypeptide encoded by SEQ ID NO:235, initially isolated from Pseudomonas fluorescens PfO-1 (protein)
chain: MITIRGEGLTIAQIAAVARGAPVRMTDDEAVLARVRASRQRIVEALESGQQIYGVTTLYGGMADRVVPADRLEALQRVSLWHHKVGAGPRLPVPDVRAAMLLRANSLLKGASGVRVELVERYVAFLNAGATPHVYQRGSIGASGDLSPLAYIGAAVIGLDRAWLVDLGEETLDCLTVLRRLGLEPMILQPKEGLALCNGTAASTGVAANCIERAFALTALALGTHALYFQALDATTQSFEPFVHALKPHPGQVWTAREMAALLDGSGLVRSEAAGDRAHRRGGLIQDRYSLRCMPQFVGPIVDGLAEAARQIEIEANSANDNPLIDPETGEVFHTGNFLAEYTAVAMDRLRYHLGMLAKHLDTQIALLVAPEFSRGLSPSLAGNLEPGLNVGLKSLQISCNSLMPLLTFYGQSMADRFPTHAEQFNQNINSQAMNGANLARDSVEVLAHFMANALVFAVQAVELRAWLVAGTYDASEVLSPATRPLYAAARAAAAGPPGPHRPLVWNDTDGFLEDKVRGVMSSILEGGAVPEAVAPVRERLRAHRG
modifications: Obtained from environmental sample; DOMAIN (1)...(492): Phenylalanine and histidine ammonia-lyase; SITE (140)...(156): Phenylalanine and histidine ammonia-lyases signature. Prosite id = PS00488; SITE (201)...(204): N-glycosylation site. Prosite id = PS00001; SITE (514)...(517): N-glycosylat
B1: the “exemplary activity determined for the polypeptide” value in assay [1] is “esterase activity”.

B2: SEQ ID NO:2: polypeptide encoded by SEQ ID NO:1, initially isolated from Tannerella forsythensis ATCC 43037 (protein)
chain: MEKTVTYQSEKGFSIHDVERLLLGQSHLKLSAESLQKVERCFIFLREFSTDKVIYGINTGFGPMAQYRVDDNCLKQLQYNIIRSHSTGAGEPLDPIYVKAAMIARLSTFLQGYSGIHTDLVRLLTEFINRDICPFIPEHGSVGASGDLVQLAHIALTLIGEGEVFYEGKRRPTAEVMQKEKLSPLDIYIREGLSATNGTSVMTGIGLVNLIYAKRLLHWSIAASVMMNEIASSYDDLMSPGLNATKRHEGQQEIARAMCRWAAGSKAMRKREIEMFQRHTEKVFGHKVQAYYSLRCVPQILGPIWDTMAYAEKVLVDELNSACDNPIVDPEAQYVYHGGNFHGDYISFEMDKLKIAVTKMTMLAERQLNYLFHNRINDDILPPFVNLGVLGLNYGLQAAQFTATSTTAECQTLSNPMYIHSIPNNNDNQDIVSMGANAALMAKTVIENGYQVMAIHFMALVQAVDYLKLQPRMAEKTRAVYDEIRAFFPVFTDDTPKYREIETMITYLKSSGKRI
modifications: Tannerella forsythensis ATCC 43037; DOMAIN (4)...(493): Phenylalanine and histidine ammonia-lyase
B2: the “exemplary activity determined for the polypeptide” value in assay [1] was “TAL and PAL activity”.
